# Patent publication US20030181401A1, “Insulin secretion promoter” (KYOWA HAKKO KOGYO CO., LTD., priority 2002, published 2003)
# Several values for one entry are separate records, joined by “and”; a condition that tells them apart may be missing. Identical values can stand only once.
# What was measured:
# Type in all cases: in vivo
# ICR mice [1] = assay: Test Example 6: serum insulin after intravenous saccharide with simultaneous oral glucose loading
# Method: Groups of male 9-week-old ICR mice (Japan SLC, Inc.) each consisting of 7 mice were fed CE-2 (Clea Japan, Inc.) for one week, so as to accustom the animals to the environment. Then, the mice were fasted for 18 hours.
# An aqueous 10% solution of 2′-FL or NeuAc was intravenously administered to the mice to 500 mg (saccharide)/kg body weight, while an aqueous 40% glucose solution was orally administered simultaneously to 2 g (glucose)/kg body weight, to the mice. To the control group, physiological saline was administered intravenously, while glucose was orally administered simultaneously to 2 g/kg body weight. Zero minute and 30 minutes after glucose loading, blood was taken from a tail vein. […] Blood was centrifuged (4° C., 10000 rpm, 10 minutes), to obtain serum.
# (§1) Insulin in the serum recovered was assayed by enzyme immunoassay using Lebis Insulin kit (for mice-T) (Shibayagi, Co., Ltd.) in the same manner as in the Test Example 2.
# db/db mice = assay: Test Example 4: serum insulin in glucose tolerance test after 7-day oral dosing of saccharides
# Method: Groups of male 9-week-old db/db mice (Clea Japan, Inc.) each consisting of 6 mice were fed CE-2 (Clea Japan, Inc.) for one week, so as to accustom the animals to the environment.
# After acclimation, individual aqueous 10% solutions of 3′-sialyllactose (abbreviated as “3′-SL” hereinafter), 6′-sialylactose (abbreviated as “6′-SL”) and 2′-FL were orally administered to the mice at 200 mg (saccharide)/kg body weight in the morning and at 300 mg (saccharide)/kg body weight in the evening. The both volume of saline was administered to the control group. The individual aqueous saccharide solutions and saline were both dosed daily to the mice for 7 days. During the dosing period, CE-2 was given together with drinking water ad libitum.
# After 18-hour starvation from the final dosing on day 7, an aqueous 40% glucose solution was orally administered to 2 g (glucose)/kg body weight to the mice, to perform glucose tolerance test. Zero minute and 30 minutes after glucose loading, blood was taken from a tail vein. […] Blood was centrifuged (4° C., 10000 rpm, 10 minutes), to obtain serum.
# Insulin in the serum recovered was assayed by enzyme immunoassay using Lebis Insulin kit (for rats-T) (Shibayagi, Co., Ltd.) in the same manner as in the Test Example 1.
# [2] = test system: STZ-induced diabetic rats (Wistar); assay: Test Example 9: blood glucose in glucose tolerance test, Type I diabetes mellitus model
# Method: Male 7-week-old Wistar rats (Japan SLC, Inc.) were fed CE-2 (Clea Japan, Inc.) for one week, so as to accustom the rats to the environment.
# After 18-hour starvation of the accustomed rats, […] of 50 mM citrate buffer, pH 4.5containing 15 mg of streptozotocin (WAKO Pure Chemical Industries, Inc.; abbreviated as “STZ” hereinafter) was prepared and administered to 25 mg (STZ)/kg body weight from their tail vein. Five days after the STZ administration, the rats were fasted for 18 hours. Blood was taken from puncture in the tail vein to assay blood glucose with a simple-type blood glucose assay apparatus Medisafe Reader GR-101 (Terumo, Co., Ltd.), to select 5 rats (Nos. 1, 3, 4, 5, 8) at mild state of diabetes mellitus with a blood glucose level of 200 mg/dl or less.
# An aqueous 2% solution of 2′-fucosyllactose was prepared and administered to the rat No. 1 from the tail vein to 50 mg/kg body weight on a 2′-FL dose basis. 0.9% physiological saline was administered to rats Nos. 3, 4, 5 and 8. Two hours after 2′-FL dosing, an aqueous 40% glucose solution was orally administered to 1 g/kg body weight to the rats for glucose tolerance test. Zero minute and 30, 60, 120, and 240 minutes after glucose loading, blood was taken from a tail vein, to assay blood glucose with Medisafe Reader GR-101 and collect the serum.
# 12 days after the STZ dosing, the rats were fasted for 18 hours. An aqueous 2% solution of 2′-FL at 50 mg (2′-FL)/kg body weight was administered to rats Nos. 3, 4, 5 and 8 on a 2′-FL dose basis through their tail veins. To the rat No. 1 was administered 0.9% physiological saline. Two hours after 2′-FL dosing, an aqueous 40% glucose solution was orally administered to 1 g (glucose)/kg body weight to the rats, for glucose tolerance test. Zero minute and 30, 60, 120, and 240 minutes after glucose loading, blood was taken from a tail vein, to assay blood glucose with Medisafe Reader GR-101 and collect the serum.
# ICR mice [3] = assay: Test Example 7: serum insulin after intravenous 2′-FL dosing without glucose loading
# Method: Groups of male 9-week-old ICR mice (Japan SLC, Inc.) each consisting of 7 mice were fed a commercially available CE-2 (Clea Japan, Inc.) for one week, so as to accustom the mice to the environment. Thereafter, an aqueous 1% solution of 2′-FL was intravenously administered to the mice to 50 mg (2′-FL)/kg body weight. The same volume of saline was administered to the control group. Zero minute and 30 minutes after dosing, blood was taken from a tail vein. […] Blood was centrifuged (4° C., 10000 rpm, 10 minutes), to obtain serum.
# as §1
substance,measurement,setting,value
2′-fucosyllactose [2′-FL],"Serum insulin concentration after glucose loading, 30 minutes","ICR mice [1]; ICR mice fasted 18 hours, 500 mg/kg intravenous with simultaneous glucose 2 g/kg oral, 30 minutes, mean ± SD",192.3 ± 57.4 pg/mL
same,"Serum insulin concentration after glucose loading, 120 minutes","ICR mice [1]; ICR mice fasted 18 hours, 500 mg/kg intravenous with simultaneous glucose 2 g/kg oral, 120 minutes, mean ± SD",2090.7 ± 533.1 pg/mL
same,serum insulin concentration after glucose loading compared with the control group (in words),"ICR mice [1]; ICR mice, intravenous dosing",increased
same,serum insulin concentration during glucose loading compared with the control group (in words),db/db mice; continuous daily oral dosing,increased
same,"Serum insulin concentration after glucose loading, 30 minutes","db/db mice; oral 200 + 300 mg/kg daily, 7 days, glucose 2 g/kg oral, 30 minutes, mean ± SD",8.3 ± 3.9 ng/mL
same,"Serum insulin concentration after glucose loading, 120 minutes","db/db mice; oral 200 + 300 mg/kg daily, 7 days, glucose 2 g/kg oral, 120 minutes, mean ± SD",26.1 ± 12.9 ng/mL
same,"Serum insulin concentration after glucose loading, Zero minute","db/db mice; oral 200 + 300 mg/kg daily, 7 days, glucose 2 g/kg oral, zero minute, mean ± SD",6.7 ± 3.3 ng/mL
same,increase of blood glucose level (in words),"[2]; STZ-induced diabetic rats, glucose loading 2 hours after intravenous dosing",suppressed
same,"Blood glucose level after glucose loading, 0 minute","[2]; individual STZ rats Nos. 1, 3, 4, 5, 8, 50 mg/kg intravenous two hours before glucose 1 g/kg oral, 0 minute, 50 mg/kg",135 mg/dL and 186 mg/dL and 97 mg/dL and 134 mg/dL and 138 mg/dL
same,"Blood glucose level after glucose loading, 30 minutes","[2]; individual STZ rats Nos. 1, 3, 4, 5, 8, 50 mg/kg intravenous two hours before glucose 1 g/kg oral, 30 minutes, 50 mg/kg",167 mg/dL and 273 mg/dL and 237 mg/dL and 162 mg/dL and 152 mg/dL
same,"Blood glucose level after glucose loading, 60 minutes","[2]; individual STZ rats Nos. 1, 3, 4, 5, 8, 50 mg/kg intravenous two hours before glucose 1 g/kg oral, 60 minutes, 50 mg/kg",172 mg/dL and 355 mg/dL and 253 mg/dL and 154 mg/dL and 158 mg/dL
same,"Blood glucose level after glucose loading, 120 minutes","[2]; individual STZ rats Nos. 1, 3, 4, 5, 8, 50 mg/kg intravenous two hours before glucose 1 g/kg oral, 120 minutes, 50 mg/kg",181 mg/dL and 342 mg/dL and 224 mg/dL and 161 mg/dL and 136 mg/dL
same,"Blood glucose level after glucose loading, 240 minutes","[2]; individual STZ rats Nos. 1, 3, 4, 5, 8, 50 mg/kg intravenous two hours before glucose 1 g/kg oral, 240 minutes, 50 mg/kg",146 mg/dl and 328 mg/dl and 139 mg/dl (2×) and 50 mg/dl
same,"Blood glucose level after glucose loading, −120 minutes","[2]; individual STZ rats Nos. 1, 3, 4, 5, 8, 50 mg/kg intravenous two hours before glucose 1 g/kg oral, −120 minutes, 50 mg/kg",108 mg/dL and 197 mg/dL and 122 mg/dL and 121 mg/dL and 117 mg/dL
same,"Serum insulin concentration after 2′-FL dosing, 30 minutes","ICR mice [3]; 50 mg/kg intravenous, no glucose loading, 30 minutes after dosing, mean ± SD",168.6 ± 40.2 pg/mL
same,"Serum insulin concentration after 2′-FL dosing, 120 minutes","ICR mice [3]; 50 mg/kg intravenous, no glucose loading, 120 minutes after dosing, mean ± SD",2035.9 ± 1098.0 pg/mL
same,serum insulin concentration compared with the control group (in words),ICR mice [3]; intravenous 2′-FL dosing,increased
